Test results published in patent US20210085676A1, “TREATMENT FOR AGE- AND OXIDATIVE STRESS-ASSOCIATED MUSCLE ATROPHY AND WEAKNESS” (Oklahoma Medical Research Foundation, priority 2018, published 2021).
Entries after “also recorded” stand apart in the source; their conditions may differ.

Assays:
SERCA = SERCA Ca2+-dependent ATPase activity in gastrocnemius muscle homogenates of treated mice; assay type: in vivo, mouse; conditions: Sod1−/− mice, 50 mg/kg i.p. 3 times per week, 7 weeks
Protocol: Animals. The generation and characterization of the Sod1^−/− mice is described in detail elsewhere (3, 24). Female ≈2 months old C57BL/6J wild-type (WT; n=12-18) and Sod1^−/− mice (n=12-18) were divided into four groups and treated with either vehicle (10% DMSO, 10% Tween-80 in PBS) or CDN1163 (50 mg/kg) by intraperitoneal injection three times per week for 7 weeks. Care and management of the mice was executed according to The Guide for the Care and Use of Laboratory Animals and approved by the institutional Animal Care and Use Committee at the Oklahoma Medical Research Foundation (OKC, Okla., USA). SERCA activity. The measurement of SERCA activity was performed in the muscle homogenates at 37° C. using a spectrophotometric assay as previously described (26). CDN1163 rescues the SERCA activity in the Sod1^−/− mice. Ca^2+-dependent Ca^2+-ATPase activity was measured in gastrocnemius muscle homogenates to determine the effects of CDN1163 on SERCA function. […] Levels of SERCA1 and SERCA2 mRNA and protein were not changed in Sod1^−/− mice and were not altered by CDN1163 treatment (FIGS. 1C, 1D).

[1] = test system: isolated mitochondria from the gastrocnemius muscle; assay: Mitochondrial H2O2 production (Amplex red-HRP) in isolated mitochondria from gastrocnemius muscle of treated mice; assay type: in vivo, mouse; conditions: Sod1−/− mice
Protocol: (§1) Animals. The generation and characterization of the Sod1^−/− mice is described in detail elsewhere (3, 24). Female ≈2 months old C57BL/6J wild-type (WT; n=12-18) and Sod1^−/− mice (n=12-18) were divided into four groups and treated with either vehicle (10% DMSO, 10% Tween-80 in PBS) or CDN1163 (50 mg/kg) by intraperitoneal injection three times per week for 7 weeks. Care and management of the mice was executed according to The Guide for the Care and Use of Laboratory Animals and approved by the institutional Animal Care and Use Committee at the Oklahoma Medical Research Foundation (OKC, Okla., USA).
Mitochondrial function. Mitochondrial isolation and assays for H2O2 generation were performed in gastrocnemius muscle as described previously by the inventor's laboratory (27). Freshly isolated mitochondria were used for H2O2 release assay using the Amplex red-HRP method. Isolated mitochondrial are exposed to respiratory substrates and HRP (1 U Ml-1) in the assay buffer catalyzes the H2O2-dependent oxidation of non-fluorescent Amplex Red (80 μM) (Molecular Probes, Eugene, Oreg., USA) to fluorescent resofurin red (excitation λ=544 nm, emission λ=590 nm at 37° C.). The slope of the increase in fluorescence was converted to the rate of H2O2 production with standard curve.
CDN1163 attenuates mitochondrial dysfunction in the Sod1^−/− mice. It is well documented that elevated levels of cytosolic Ca^2+ lead to increased mitochondrial ROS production (16). The inventors have previously shown that the mitochondria from the Sod1^−/− mice show structural and functional defects (4, 5). To test whether the activation of SERCA pump function improves mitochondrial function, the inventors measured mitochondrial ROS production as H2O2 emission using isolated mitochondria from the gastrocnemius muscle. […] CDN1163 treatment in the Sod1^−/− mice returns glutamate/malate stimulated H2O2 generation to WT levels (FIG. 4A).

[2] = test system: EDL muscle of Sod1−/− mice; assay: Contractile measurements in isolated EDL muscle of treated Sod1−/− mice; assay type: in vivo, mouse
Protocol: Animals. The generation and characterization of the Sod1^−/− mice is described in detail elsewhere (3, 24). Female ≈2 months old C57BL/6J wild-type (WT; n=12-18) and Sod1^−/− mice (n=12-18) were divided into four groups and treated with either vehicle (10% DMSO, 10% Tween-80 in PBS) or CDN1163 (50 mg/kg) by intraperitoneal injection three times per week for 7 weeks. Care and management of the mice was executed according to The Guide for the Care and Use of Laboratory Animals and approved by the institutional Animal Care and Use Committee at the Oklahoma Medical Research Foundation (OKC, Okla., USA). Contractile Measurements. Contractile force generation was measured in isolated extensor digitorum longus (EDL) muscle using a 1200A in vitro test system (Aurora Scientific Inc.) as described elsewhere (7). Briefly, muscles were individually tied to a model 300C servomotor (Aurora Scientific Inc.) and fixed within a water bath containing an oxygenated (95% O2, 5% CO2) Krebs-Ringer solution (in mM: 137 NaCl, 5 KCl, 1 MgSO4, 1 NaH2PO4, 24 NaHCO3, 2 CaCl2) maintained at 32 C. Computer controlled stimulation was applied through a model 701C stimulator (Aurora Scientific Inc.). Force frequency curves were generated with stimulation frequencies between 1 and 300 Hz, while the fatigue protocol consisted of repeated 150 Hz stimuli, every 5 s for 400 s. All data were recorded and analyzed using commercial software (DMC and DMA, Aurora Scientific). Specific force (N/cm^2) was measured using muscle length and mass. Example 3. CDN1163 prevents contractile dysfunction in the Sod1^−/− mice. In agreement with the inventor's previous findings, the inventors measured a significant decline in the in-vitro specific force measured in EDL muscle of Sod1^−/− mice (˜19%, p<0.05) when compared to WT mice (FIG. 3A). […] On the other hand, CDN1163 has no effect on the time to peak contraction (TTP) and half relaxation time (RT1/2) in the EDL muscle during twitch contractions (FIGS. 3B, 3C).

ob/ob mouse model = conditions: reference 17; cited from earlier work
Sod1−/− mice = assay: Body mass and gastrocnemius muscle mass in Sod1−/− mouse model of accelerated sarcopenia; assay type: in vivo; conditions: 50 mg/kg i.p. 3 times per week, 7 weeks
Protocol: as §1, with “USA). CDN1163 prevents gastrocnemius muscle atrophy in the Sod1^−/− mice. […] At 2 months of age, neither absolute (FIG. 2B) nor normalized (FIG. 2C) gastrocnemius muscle mass is statistically lower in Sod1^−/− versus WT female mice. However, at the end of the 7 week period (˜4 months of age) there is a significant decrease in both absolute and normalized gastrocnemius muscle mass in the untreated Sod1^−/− mice compared to untreated WT mice (FIGS. 2B, 2C) consistent with the inventor's previous reports(3).” for “USA).”

old wildtype mice = assay: Aging study in old wildtype mice (24-26 months), 8-10 months treatment; assay type: in vivo, mouse
Excerpt: The present inventors studied a group of old wildtype mice (24-26 months) with and without 8-10 months treatment with CDN1163. […] Further, the old mice show significant atrophy of the gastrocnemius muscles when compared to baseline group (≈10%, p<0.05). […] The inventors also measured the muscle force generating capacity in the mouse EDL muscles because of large body of literature showing reduced strength of extensor digitorum longus (EDL) muscle with aging. EDL muscle weakness in the old wild-type mice (≈11%, p<0.05) was consistent with previous studies, when compared to the baseline group. […] This effect was consistent at stimulation frequencies for maximal and sub-maximal (≈50% of maximal force) tetanic forces normalized for muscle mass. […] As such, CDN1163 was able to reduce muscle weakness, while not having side-effects related to muscle half relaxation time and time to maximal twitch force.

[3] = test system: F2-isoprostanes in quadriceps muscle; assay: Oxidative damage by F2-isoprostane level in quadriceps muscle of treated mice; assay type: in vivo, mouse; conditions: Sod1−/− mice
Protocol: as §1, with “USA). Analysis of oxidative damage by F2-isoprostane level. The levels of F2-isoprostanes in quadriceps muscle were measured using thin layer chromatography and GC-mass spectrometry as described previously (25). CDN1163 reduces the oxidative damage in the Sod1^−/− mice. The inventors have previously reported increased oxidative damage in the skeletal muscles of Sod1^−/− mice (6) that might be contributing to muscle atrophy and weakness. […] Therefore the inventors investigated whether CDN1163 can prevent oxidative stress-induced damage by measuring the levels of F2-isoprostanes, an indicator of lipid peroxidation, in the quadriceps muscles.” for “USA).”

[4] = 50 mg/kg i.p. 3 times per week, 7 weeks
[5] = EDL muscle, twitch contractions, 7 weeks treatment
[6] = old wildtype mice 24-26 months, versus 16 month old baseline

For `Cc1ccc2cccc(NC(=O)c3ccc(OC(C)C)cc3)c2n1` [CDN1163, 4-(1-Methylethoxy)-N-(2-methyl-8-quinolinyl)-benzamide], the “Maximum Ca2+ dependent SERCA (SR Ca2+-ATPase) activity” value (SERCA) was “completely restored”, the “Mitochondrial ROS generation” value [1, 4] was “reversed” and the “Mitochondrial H2O2 production, glutamate/malate stimulated (state-2, complex 1-linked)” value ([1]; 7 weeks treatment) was “reduces; also recorded: to WT levels”. The “Mitochondrial H2O2 production, State-1 respiration” value ([1]; without external substrate, 7 weeks treatment) was “reduces; also recorded: do not show elevated levels”, the “Half relaxation time (RT1/2)” value [2, 5] was “without affecting; also recorded: no effect” and the “Time to twitch peak tension / time to peak contraction (TTP)” value [2, 5] was “without affecting; also recorded: no effect”. For the same compound, the “Specific force of EDL muscle” value ([2]; Sod1−/− mice, 50 mg/kg i.p. 3 times per week, 7 weeks, measured in vitro, 50 mg/kg) was “completely restored”, the “Plasma levels of malondialdehyde (marker of oxidative stress)” value (ob/ob mouse model) was “reduce” and the “Increase in (normalized) gastrocnemius muscle mass versus untreated Sod1−/− mice” value (Sod1−/− mice; Sod1−/− mice) was 23%. The “Gastrocnemius muscle mass / atrophy” value (Sod1−/− mice; Sod1−/− mice, 50 mg/kg) was “restores; also recorded: completely prevented this atrophy”, the “Body weight (body mass)” value (Sod1−/− mice; WT or Sod1−/− mice, 50 mg/kg) was “did not alter” and the “Muscle half relaxation time” value (old wildtype mice; old wildtype mice) was “no significant effects”. For the same compound, the “Time to maximal twitch force” value (old wildtype mice; old wildtype mice) was “no significant effects”, the “Age-related atrophy of the gastrocnemius muscles” value (old wildtype mice; [6]) was “completely prevented” and the “Age-related reduction in body weight” value (old wildtype mice; [6]) was “did not prevent”. The “Age-related decline in EDL muscle force” value (old wildtype mice; old wildtype mice, maximal and sub-maximal tetanic forces normalized for muscle mass) was “prevented this decline in force”, the “Reduction of oxidative damage in muscle tissue measured as F2-isoprostanes” value [3, 4] was 50% and the “F2-isoprostanes levels (lipid peroxidation)” value ([3]; quadriceps muscle, 7 weeks treatment) was “reduces; also recorded: prevented this increase”.
